Laboratory results: the NIST ThermoML archive (doi:10.1016/j.tca.2014.07.025)

Test: mn = molality of the nth substance listed, in mol/kg
Details: 100 kPa, Liquid; for speed of sound: Frequency=3 MHz, Sing-around technique in a fixed-path interferometer; for mass density: Vibrating tube method

NCC(=O)NCC(=O)O [glycylglycine] + O
Details	mass density, 305.15 K [kg/m3]	mass density, 310.15 K [kg/m3]	mass density, 315.15 K [kg/m3]	speed of sound, 305.15 K [m/s]	speed of sound, 310.15 K [m/s]	speed of sound, 315.15 K [m/s]
m1 = 0.00206	995.2	993.513	991.618	1514.1	1524.1	1532.4
m1 = 0.00597	995.41	993.721	991.824	1514.8	1524.7	1532.9
m1 = 0.00797	995.517	993.827	991.929	1515.2	1525.1	1533.5
m1 = 0.01021	995.637	993.946	992.047	1515.4	1525.2	1533.6
m1 = 0.02015	996.168	994.474	992.568	1515.8	1525.6	1534
m1 = 0.05037	997.778	996.073	994.147	1517.8	1527.5	1535.8
m1 = 0.1008	1000.45	998.723	996.764	1521.6	1531.2	1539.4
m1 = 0.2021	1005.75	1003.99	1001.97	1529.5	1538.8	1546.9
m1 = 0.2959	1010.58	1008.79	1006.71	1536	1545.4	1553
m1 = 0.4	1015.86	1014.03	1011.88	1542.5	1551.6	1559.3
